From patent US6635242B2, “Broad spectrum microbicidal and spermicidal compositions, devices, and methods” (The Pennsylvania State University, priority 1998, dated 2003)

Tested on: HSV-2
Experiment: Protection of mice from vaginal infection with live HSV-2
Assay type: in vivo, herpes simplex virus
Conditions: Swiss-Webster mice
Procedure: The following data represent an in vivo experiment to test both the toxicity and the efficacy of SDS in the protection of mice from vaginal infection with live herpes simplex virus (HSV-2).
The experiment used outbred, female, Swiss-Webster mice. Mice were anesthetized and then SDS or control solutions (25μl ) was instilled into the vagina using a yellow pipette tip. The SDS was not formulated into a vaginal cream or foam but merely dissolved into phosphate buffered saline. These solutions have low viscosity. Fluids were instilled into groups of 10 mice at one time. Following administration of SDS or control solutions to the group of 10, then an additional 25 μof virus or control fluid was instilled. Mice were allowed to recover from the anesthesia and then the mice were checked daily for symptoms, beginning on day three and until 12 days after inoculation. Vaginal swabs were also performed on the mice on a daily basis, beginning on day three, in order to determine shedding of virus. FIGS. 3A-3G show the total symptoms per group on days 3 through 12 for each of the following symptoms: swelling, vaginal exudate, redness, death, leg paralysis, perianal hair loss and any symptom.

## CCCCCCCCCCCCOS(=O)(=O)[O-].[Na+] [SDS, Sodium dodecyl sulfate]
4% SDS
  protection from HSV-2 inoculation of the vagina, dose response: most protection
All concentrations of SDS (0.5%, 1%, 2%, 4%) in PBS, 25 μl intravaginal
  protection from HSV-2 inoculation of the vagina (symptoms days 3-12): significant protection
